Reference: article PMC4482421 (ACS Nano, 2015)
Square brackets hold non-standard residues; d marks the D form. Peptide text beside a SMILES is read from it. pS = N[C@@H](COP(=O)(O)O)C(=O)O

Legend:
[1] = system: human coronary artery vascular smooth muscle cells (HCAVSMCs); experiment: Cytotoxicity assay; type: cell-based; conditions: 10–500 μM peptide, 2 h treatment, then 24 h in fresh medium
[2] = system: human saphenous vein (HSV) rings; experiment: Inhibition of phenylephrine-induced HSV contraction; conditions: HSV rings ex vivo; 2 h treatment; 1 μM phenylephrine; n ≥ 3 donors

CC(C)C[C@H](NC(=O)CNC(=O)[C@@H]1CCCN1C(=O)[C@H](CC(C)C)NC(=O)[C@@H]1CCCN1C(=O)[C@H](C)NC(=O)[C@H](COP(=O)(O)O)NC(=O)[C@H](C)NC(=O)[C@H](CCCNC(=N)N)NC(=O)[C@H](CCCNC(=N)N)NC(=O)[C@H](CC(C)C)NC(=O)[C@H](Cc1c[nH]c2ccccc12)NC(=O)[C@H](C)NC(=O)[C@H](CCCNC(=N)N)NC(=O)[C@H](C)NC(=O)[C@H](CCC(N)=O)NC(=O)[C@H](CCCNC(=N)N)NC(=O)[C@H](C)NC(=O)[C@H](C)NC(=O)[C@H](C)NC(=O)[C@H](CCCNC(=N)N)NC(=O)[C@H](C)NC(=O)[C@@H](N)Cc1ccc(O)cc1)C(=O)N[C@@H](CCCCN)C(=O)O [p-HSP20] (H-YARAAARQARAWLRRA[pS]APLPGLK-OH; N-terminus and C-terminus assumed)
cytotoxicity / biocompatibility [1]: biocompatible with the exception of mild cytotoxicity detected at 500 μM
inhibition of PE-induced HSV contraction [2]: significantly inhibited the second PE-induced HSV contraction
